What was measured:
[1] = biological target: Protein kinase C alpha type (Homo sapiens, UniProt P17252)
[2] = biological target: Protein kinase C theta type (Homo sapiens, UniProt Q04759)
Description: Inhibition of human recombinant PKCtheta expressed in Sf21 cells using Bio-cdc peptide substrate and ATP after 60 mins by time-resolved fluorescence in-vitro kinase assay

[3] = Permeability from apical to basolateral side in MDCK2-MDR1 cells at pH 7.4; format: ADME, cell-based, Canis lupus familiaris, MDCK-II; conditions: dog, MDCK-MDR1, pH 7.4; read-out: permeability
[4] = cells; conditions: Homo sapiens, T-Blast, 24 h
Description: Inhibition of anti-CD3/anti-CD28 antibody-induced IL2 production in human T-Blast cells after 24 hrs

[5] = Unbound intrinsic clearance in human microsomes; format: ADME, Microsome
[6] = Unbound intrinsic clearance in rat microsomes; format: ADME, Microsome
[7] = Cmax in rat at 1 mg/kg, iv or 3 mg/kg, po; format: ADME, organism-based; conditions: in vivo
[8] = AUC in rat at 1 mg/kg, iv or 3 mg/kg, po; format: ADME, organism-based; conditions: plasma
[9] = Half life in rat at 1 mg/kg, iv or 3 mg/kg, po; format: ADME, organism-based; conditions: in vivo
[10] = biological target: Protein kinase C gamma type (Homo sapiens, UniProt P05129); test: Inhibition of human recombinant PKCgamma expressed in Sf21 cells using Bio-cdc peptide substrate and ATP after 60 mins by time-resolved fluorescence in-vitro kinase assay
[11] = biological target: Protein kinase C delta type (Homo sapiens, UniProt Q05655); test: Inhibition of human recombinant PKCdelta expressed in Sf21 cells using Bio-cdc peptide substrate and ATP after 60 mins by time-resolved fluorescence in-vitro kinase assay
Sequence of Protein kinase C delta type (Q05655 whole entry): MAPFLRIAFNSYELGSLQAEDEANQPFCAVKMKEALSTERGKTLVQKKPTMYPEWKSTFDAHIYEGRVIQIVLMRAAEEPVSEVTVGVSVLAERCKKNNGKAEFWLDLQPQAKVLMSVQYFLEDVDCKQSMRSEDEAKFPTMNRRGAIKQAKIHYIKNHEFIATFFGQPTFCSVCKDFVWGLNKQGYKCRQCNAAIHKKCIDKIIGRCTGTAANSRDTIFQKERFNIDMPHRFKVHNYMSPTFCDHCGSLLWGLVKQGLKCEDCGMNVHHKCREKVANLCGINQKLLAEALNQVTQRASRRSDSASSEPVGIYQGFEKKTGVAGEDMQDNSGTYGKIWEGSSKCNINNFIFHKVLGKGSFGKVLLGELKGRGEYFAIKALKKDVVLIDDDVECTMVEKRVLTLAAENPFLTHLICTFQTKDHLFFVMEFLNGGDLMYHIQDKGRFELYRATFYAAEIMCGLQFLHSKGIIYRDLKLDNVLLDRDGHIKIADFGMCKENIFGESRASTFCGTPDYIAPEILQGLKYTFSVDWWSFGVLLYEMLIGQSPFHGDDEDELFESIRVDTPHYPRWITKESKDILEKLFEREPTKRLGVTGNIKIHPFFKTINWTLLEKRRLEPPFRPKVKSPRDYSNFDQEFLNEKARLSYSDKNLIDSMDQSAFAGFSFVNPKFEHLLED

[12] = biological target: Protein kinase C beta type (Homo sapiens, UniProt P05771); test: Inhibition of human recombinant PKCbeta expressed in Sf21 cells using Bio-cdc peptide substrate and ATP after 60 mins by time-resolved fluorescence in-vitro kinase assay
Sequence of Protein kinase C beta type (P05771 whole entry): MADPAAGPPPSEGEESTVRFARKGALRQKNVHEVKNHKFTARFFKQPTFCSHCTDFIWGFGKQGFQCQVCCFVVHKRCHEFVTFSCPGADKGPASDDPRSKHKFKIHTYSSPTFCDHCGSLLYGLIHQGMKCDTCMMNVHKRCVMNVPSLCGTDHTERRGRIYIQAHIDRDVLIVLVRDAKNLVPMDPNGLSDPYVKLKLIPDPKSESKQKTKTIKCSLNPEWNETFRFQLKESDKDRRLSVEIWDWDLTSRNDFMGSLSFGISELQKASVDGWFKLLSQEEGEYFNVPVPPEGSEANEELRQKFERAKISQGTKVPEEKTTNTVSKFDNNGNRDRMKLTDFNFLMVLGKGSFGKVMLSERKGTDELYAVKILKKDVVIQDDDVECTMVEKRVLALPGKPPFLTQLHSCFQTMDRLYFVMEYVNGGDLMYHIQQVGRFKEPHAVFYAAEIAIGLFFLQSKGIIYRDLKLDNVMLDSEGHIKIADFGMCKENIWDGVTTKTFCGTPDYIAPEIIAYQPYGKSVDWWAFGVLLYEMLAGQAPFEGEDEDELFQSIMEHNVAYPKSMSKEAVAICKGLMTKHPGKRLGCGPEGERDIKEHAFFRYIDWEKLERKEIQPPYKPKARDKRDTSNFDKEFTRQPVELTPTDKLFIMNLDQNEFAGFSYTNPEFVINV

[13] = Oral bioavailability in rat at 3 mg/kg; format: ADME, organism-based; conditions: in vivo
[14] = Plasma clearance in rat at 1 mg/kg, iv or 3 mg/kg, po; format: ADME, organism-based
[15] = Unbound intrinsic clearance in mouse microsomes; format: ADME, Microsome

Sequence of Protein kinase C theta type (Q04759 whole entry): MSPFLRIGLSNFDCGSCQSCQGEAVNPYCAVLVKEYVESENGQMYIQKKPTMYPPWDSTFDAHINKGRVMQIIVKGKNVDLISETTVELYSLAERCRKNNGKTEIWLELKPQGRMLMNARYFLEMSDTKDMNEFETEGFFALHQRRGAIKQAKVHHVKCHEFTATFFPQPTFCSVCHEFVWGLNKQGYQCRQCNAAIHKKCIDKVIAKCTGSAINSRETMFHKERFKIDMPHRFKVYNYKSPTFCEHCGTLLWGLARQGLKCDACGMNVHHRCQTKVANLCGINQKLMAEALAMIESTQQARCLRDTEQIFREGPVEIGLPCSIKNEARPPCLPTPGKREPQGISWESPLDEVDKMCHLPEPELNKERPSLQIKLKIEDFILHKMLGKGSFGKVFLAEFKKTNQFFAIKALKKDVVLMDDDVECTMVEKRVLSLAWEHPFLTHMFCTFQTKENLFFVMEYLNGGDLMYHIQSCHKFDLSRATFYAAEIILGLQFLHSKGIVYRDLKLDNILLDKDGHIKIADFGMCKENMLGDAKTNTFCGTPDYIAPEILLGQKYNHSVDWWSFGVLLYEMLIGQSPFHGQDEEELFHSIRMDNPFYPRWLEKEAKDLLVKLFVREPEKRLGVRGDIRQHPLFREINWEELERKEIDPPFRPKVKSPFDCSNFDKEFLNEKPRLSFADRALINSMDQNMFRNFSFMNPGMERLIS

Structure (SMILES) | IC50 [1] [µM] | IC50 [2] [µM] | Papp A→B [3] [nm/s] | IC50 [4] [µM] | CL free [5] [L/h/kg] | also measured
Cc1cc2c(cc1NC1CNC1)N1C(=NNC(=O)C1C)CO2 (stereo unspecified) | 4.1 | 0.11 | 3.1 | 0.43 | < 2 | CL free [6]: 3.7 L/h/kg
CC1C(=O)NN=C2COc3cc(C(F)(F)F)c(NC4CNC4)cc3N21 (stereo unspecified) | 2.2 |  | 8.5 | 0.23 | 3.4 | CL free [6]: < 4 L/h/kg
O=C1CN2C(=NN1)COc1ccc(NC3CCCNC3)cc12 (stereo unspecified) |  | 14 |  |  |  | 
O=C1NN=C2COc3ccc(NC4CNC4)cc3N2C1C1CC1 (stereo unspecified) | > 50 | 3.5 |  |  |  | 
CC1C(=O)NN=C2COc3ccc(NC4CNC4)cc3N21 (stereo unspecified) | 9.4 | 0.23 | 4.2 | 2.7 | 2 | CL free [6]: 2.9 L/h/kg
O=C1CN2C(=NN1)COc1ccc(NC(=O)C3CNC3)cc12 |  | 19 |  |  |  | 
O=C1NN=C2COc3ccc(NC4CNC4)cc3N2C1c1ccccc1 (stereo unspecified) | > 50 | > 50 |  |  |  | 
O=C1CN2C(=NN1)COc1ccc(NC3COC3)cc12 |  | > 50 |  |  |  | 
O=C1CN2C(=NN1)COc1ccc(NC(=O)CC3CCNCC3)cc12 |  | > 50 |  |  |  | 
Cc1cc2c(cc1NC1CNC1)N1C(=NNC(=O)[C@H]1C)CO2 | 5.1 | 0.055 | 3.5 | 0.27 | 2.4 | Cmax [7]: 8.7 ng/mL; AUC [8]: 0.06 µg·h/mL; half-life [9]: 3 h; IC50 [10]: 23 µM; IC50 [11]: 0.75 µM; IC50 [12]: 0.52 µM; bioavailability [13]: 9.2%; clearance [14]: 4.9 L/h/kg
CCC1C(=O)NN=C2COc3ccc(NC4CNC4)cc3N21 (stereo unspecified) | 5.4 | 1 |  |  |  | 
O=C1CN2C(=NN1)COc1ccc(NC3CCNCC3)cc12 |  | 21 |  |  |  | 
O=C1CN2C(=NN1)COc1ccc(NC3CNC3)cc12 | 7.1 | 1.3 |  |  |  | 
O=C1CN2C(=NN1)COc1ccc(NCC3CCNC3)cc12 (stereo unspecified) |  | 20 |  |  |  | 
O=C1CN2C(=NN1)COc1ccc(NC3CCC3)cc12 |  | 38 |  |  |  | 
O=C1CN2C(=NN1)COc1ccc(NC(=O)C3CCNC3)cc12 (stereo unspecified) |  | 46 |  |  |  | 

Structure (SMILES) | IC50 [1] [µM] | IC50 [2] [µM] | Papp A→B [3] [nm/s] | IC50 [4] [µM] | CL free [5] [L/h/kg] | also measured
CC(C)c1cc2c(cc1NC1CNC1)N1C(=NNC(=O)C1C)CO2 (stereo unspecified) | 2.2 | 0.13 | 2.8 | 0.34 | < 2 | CL free [6]: 5.3 L/h/kg
CC(N)CNc1ccc2c(c1)N1CC(=O)NN=C1CO2 (stereo unspecified) |  | 18 |  |  |  | 
CC1C(=O)NN=C2COc3cc(C(F)(F)F)c(OC4CNC4)cc3N21 (stereo unspecified) | 3 | 0.19 |  | 0.91 | 3.1 | CL free [6]: < 4.4 L/h/kg
CC1C(=O)NN=C2COc3cc(C(F)(F)F)c(CC4CNC4)cc3N21 (stereo unspecified) | 1.6 | 0.059 | 5 | 0.39 | < 2.8 | CL free [6]: 4.9 L/h/kg
CN(C)Cc1ccc2c(c1)OCC1=NNC(=O)CN12 |  | 16 |  |  |  | 
CN1CCC(C(=O)Nc2ccc3c(c2)N2CC(=O)NN=C2CO3)CC1 |  | 4.5 |  |  |  | 
O=C1CN2C(=NN1)COc1ccc(NC3CCNC3)cc12 (stereo unspecified) |  | 3.3 |  |  |  | 
Cc1cc2c(cc1NC1CNC1)N1C(=NNC(=O)[C@@H]1C)CO2 | 3 | 0.39 | 1.6 | 4.2 |  | CL free [15]: < 4.4 L/h/kg
C[C@H]1C(=O)NN=C2COc3cc(-c4ccccc4)c(NC4CNC4)cc3N21 | 6.6 | 0.76 | 2.3 | 2.4 | 6.6 | CL free [15]: 25 L/h/kg; CL free [6]: < 6.2 L/h/kg
O=C1CN2C(=NN1)COc1ccc(NC(=O)C3CCNCC3)cc12 |  | 3.5 |  |  |  | 
C[C@H]1C(=O)NN=C2COc3cc(C(F)(F)F)c(NC4CNC4)cc3N21 | 2.9 |  | 2.5 | 1 | 5.1 | CL free [15]: < 7.2 L/h/kg; CL free [6]: 7.1 L/h/kg
O=C1CN2C(=NN1)COc1ccc(NCC3CNC3)cc12 |  | 17 |  |  |  | 
CC1C(=O)NN=C2COc3cc(F)c(NC4CNC4)cc3N21 (stereo unspecified) | 6.9 | 0.1 | 8.6 | 0.31 | < 1.6 | CL free [6]: 3 L/h/kg
CN(C)CC(=O)Nc1ccc2c(c1)N1CC(=O)NN=C1CO2 |  | 46 |  |  |  | 
O=C1CN2C(=NN1)COc1ccc(NCC3CCNCC3)cc12 |  | 31 |  |  |  | 
O=C1CN2C(=NN1)COc1ccc(NC3CCCNCC3)cc12 (stereo unspecified) |  | 8.9 |  |  |  | 

From ChEMBL document CHEMBL3352377, “Discovery of selective and orally bioavailable protein kinase Cθ (PKCθ) inhibitors from a fragment hit” (J Med Chem, 2015)
